Results published in ChEMBL document CHEMBL4229348, “Structure-activity relationship studies of ultra-short peptides with potent activities against fluconazole-resistant Candida albicans” (Eur J Med Chem, 2018).
≈ marks a conversion by molar mass, not a printed value. Calls of active or inactive are those of the source. The calls are words filed in the database; no cut-off is given here. Square brackets hold non-standard residues; d marks the D form. Peptide text beside a SMILES is read from it. Lys(Me2) = CN(C)CCCC[C@H](N)C(=O)O; Ala(cPr) = N[C@@H](CC1CC1)C(=O)O; tBuAla = CC(C)(C)C[C@H](N)C(=O)O; Dap = NC[C@H](N)C(=O)O

How the values were obtained:
Candida albicans [1] = assay: Antifungal activity against fluconazole-resistant Candida albicans ATCC 64550 after overnight incubation by CLSI broth microdilution method; format: functional
[2] = Retention time of the compound at 0.4 mM by HPLC analysis; format: physicochemical; settings: 400 µM
Candida albicans [3] = assay: Antifungal activity against fluconazole-resistant Candida albicans TTSH-CALB02 after overnight incubation by CLSI broth microdilution method; format: functional
Candida albicans [4] = assay: Antifungal activity against fluconazole-resistant Candida albicans ATCC 200955 after overnight incubation by CLSI broth microdilution method; format: functional
Candida albicans [5] = assay: Antifungal activity against fluconazole-resistant Candida albicans ATCC 64124 after overnight incubation by CLSI broth microdilution method; format: functional
Candida albicans [6] = assay: Antifungal activity against fluconazole-resistant Candida albicans NUH-K6004 after overnight incubation by CLSI broth microdilution method; format: functional
Candida albicans [7] = assay: Antifungal activity against fluconazole-resistant Candida albicans ATCC MYA-573 after overnight incubation by CLSI broth microdilution method; format: functional
Candida albicans [8] = assay: Antifungal activity against fluconazole-resistant Candida albicans ATCC 96901 after overnight incubation by CLSI broth microdilution method; format: functional
Candida albicans [9] = assay: Antifungal activity against fluconazole-resistant Candida albicans TTSH-CALB01 after overnight incubation by CLSI broth microdilution method; format: functional
[10] = Cytotoxicity against NHDF assessed as reduction in cell viability after 5 days by CellTiter-Glo assay; format: cell-based; settings: human, NHDF cells
Candida albicans [11] = assay: Fungistatic activity against fluconazole-resistant Candida albicans ATCC 64550 at 4 times MIC incubated for overnight flowed by replating and measured after 24 hrs; format: functional, organism-based
[12] = Cytotoxicity against human bone marrow cells assessed as inhibition of colony formation; format: cell-based, Bone marrow cell
NHDF = assay: Cytotoxicity against NHDF assessed as reduction in cell viability up to 200 uM after 5 days by CellTiter-Glo assay; format: cell-based; settings: human, 120 h

Compound	MIC (Candida albicans [1]) [µM]	Retention_time [2] [min]	also measured
CC(C)C[C@@H](N)C(=O)N[C@H](CCCCN)C(=O)N[C@H](CC(C)C)C(=O)N[C@H](CCCCN)C(=O)N[C@H](CC(C)C)C(=O)N[C@H](CCCCN)C(=O)N[C@H](CC(C)C)C(=O)N[C@H](CCCCN)C(N)=O	3.13 (≈ 3.07 µg/mL)	13.8	
CC(C)C[C@H](NC(=O)[C@H](CCCCN)NC(=O)[C@H](CC(C)C)NC(=O)[C@H](CCCCN)NC(=O)[C@H](CC(C)C)NC(=O)[C@H](CCCCN)NC(=O)[C@@H](N)CC(C)C)C(=O)N[C@@H](CCCCN)C(N)=O	3.13 (≈ 3.07 µg/mL)	13.8	
CC[C@H](C)[C@H](N)C(=O)N[C@@H](CN)C(=O)N[C@H](C(=O)N[C@@H](CN)C(=O)N[C@H](C(=O)N[C@@H](CN)C(=O)N[C@H](C(=O)N[C@@H](CN)C(=O)N[C@H](C(N)=O)[C@@H](C)CC)[C@@H](C)CC)[C@@H](C)CC)[C@@H](C)CC (H-I[Dap]I[Dap]I[Dap]I[Dap]I-NH2)	25 (≈ 23.2 µg/mL)	13.7	
CC[C@H](C)[C@H](N)C(=O)N[C@@H](CCCCN(C)C)C(=O)N[C@H](C(=O)N[C@@H](CCCCN(C)C)C(=O)N[C@H](C(=O)N[C@@H](CCCCN(C)C)C(=O)N[C@H](C(=O)N[C@@H](CCCCN(C)C)C(N)=O)[C@@H](C)CC)[C@@H](C)CC)[C@@H](C)CC (H-I[Lys(Me2)]I[Lys(Me2)]I[Lys(Me2)]I[Lys(Me2)]-NH2)	100 (≈ 109 µg/mL)	14	
CC(C)C[C@H](NC(=O)[C@H](CCCCN)NC(=O)[C@@H](N)CC(C)C)C(=O)N[C@@H](CCCCN)C(N)=O (H-LKLK-NH2)	> 100	11	
CC(C)C[C@H](NC(=O)[C@H](CCCCN)NC(=O)[C@@H](N)CC(C)C)C(N)=O (H-Leu-Lys-Leu-NH2)	> 100	12.1	
CC(C)C[C@H](N)C(=O)N[C@@H](CCCCN)C(N)=O (H-Leu-Lys-NH2)	> 100	2.1	
CC(C)C[C@H](NC(=O)[C@@H](N)CCCCN)C(=O)N[C@@H](CCCCN)C(N)=O (H-Lys-Leu-Lys-NH2)	> 100	2.4	
NCCCC[C@H](NC(=O)[C@H](CC1CC1)NC(=O)[C@H](CCCCN)NC(=O)[C@H](CC1CC1)NC(=O)[C@H](CCCCN)NC(=O)[C@H](CC1CC1)NC(=O)[C@H](CCCCN)NC(=O)[C@@H](N)CC1CC1)C(N)=O (H-[Ala(cPr)]K[Ala(cPr)]K[Ala(cPr)]K[Ala(cPr)]K-NH2)	6.25 (≈ 6.09 µg/mL)	12.8	
CC(C)(C)C[C@H](NC(=O)[C@H](CCCCN)NC(=O)[C@H](CC(C)(C)C)NC(=O)[C@H](CCCCN)NC(=O)[C@H](CC(C)(C)C)NC(=O)[C@H](CCCCN)NC(=O)[C@@H](N)CC(C)(C)C)C(=O)N[C@@H](CCCCN)C(N)=O (H-[tBuAla]K[tBuAla]K[tBuAla]K[tBuAla]K-NH2)	3.13 (≈ 3.25 µg/mL)	15.6	
CC[C@H](C)[C@H](N)C(=O)N[C@@H](CCN)C(=O)N[C@H](C(=O)N[C@@H](CCN)C(=O)N[C@H](C(=O)N[C@@H](CCN)C(=O)N[C@H](C(=O)N[C@@H](CCN)C(=O)N[C@H](C(N)=O)[C@@H](C)CC)[C@@H](C)CC)[C@@H](C)CC)[C@@H](C)CC (HELM PEPTIDE1{I.[Dab].I.[Dab].I.[Dab].I.[Dab].I.[am]}$$$$V2.0)	6.25 (≈ 6.15 µg/mL)	13.5	
CC[C@H](C)[C@H](N)C(=O)N[C@@H](CCCN)C(=O)N[C@H](C(=O)N[C@@H](CCCN)C(=O)N[C@H](C(=O)N[C@@H](CCCN)C(=O)N[C@H](C(=O)N[C@@H](CCCN)C(=O)N[C@H](C(N)=O)[C@@H](C)CC)[C@@H](C)CC)[C@@H](C)CC)[C@@H](C)CC (HELM PEPTIDE1{I.[Orn].I.[Orn].I.[Orn].I.[Orn].I.[am]}$$$$V2.0)	6.25 (≈ 6.5 µg/mL)	13.2	
CC[C@H](NC(=O)[C@H](CCCCN)NC(=O)[C@H](CC)NC(=O)[C@H](CCCCN)NC(=O)[C@H](CC)NC(=O)[C@H](CCCCN)NC(=O)[C@@H](N)CC)C(=O)N[C@@H](CCCCN)C(N)=O (HELM PEPTIDE1{[Abu].K.[Abu].K.[Abu].K.[Abu].K.[am]}$$$$V2.0)	> 100	6	
CCCCCCCCCCCC(=O)N[C@H](C(=O)N[C@@H](CCCCN)C(=O)N[C@H](C(=O)N[C@@H](CCCCN)C(=O)N[C@H](C(=O)N[C@@H](CCCCN)C(=O)N[C@H](C(=O)N[C@@H](CCCCN)C(N)=O)[C@@H](C)CC)[C@@H](C)CC)[C@@H](C)CC)[C@@H](C)CC (HELM PEPTIDE1{[CCCCCCCCCCCC(=O)[*:2]].I.K.I.K.I.K.I.K.[am]}$$$$V2.0)	> 100	20.8	
CCCCCCCCCCCCCCCC(=O)N[C@H](C(=O)N[C@@H](CCCCN)C(=O)N[C@H](C(=O)N[C@@H](CCCCN)C(=O)N[C@H](C(=O)N[C@@H](CCCCN)C(=O)N[C@H](C(=O)N[C@@H](CCCCN)C(N)=O)[C@@H](C)CC)[C@@H](C)CC)[C@@H](C)CC)[C@@H](C)CC (HELM PEPTIDE1{[CCCCCCCCCCCCCCCC(=O)[*:2]].I.K.I.K.I.K.I.K.[am]}$$$$V2.0)	> 100	23.5	
NCCCC[C@H](NC(=O)[C@H](CC1CCCCC1)NC(=O)[C@H](CCCCN)NC(=O)[C@H](CC1CCCCC1)NC(=O)[C@H](CCCCN)NC(=O)[C@H](CC1CCCCC1)NC(=O)[C@H](CCCCN)NC(=O)[C@@H](N)CC1CCCCC1)C(N)=O (HELM PEPTIDE1{[Cha].K.[Cha].K.[Cha].K.[Cha].K.[am]}$$$$V2.0)	> 100	17.9	
CCC[C@H](NC(=O)[C@H](CCCCN)NC(=O)[C@H](CCC)NC(=O)[C@H](CCCCN)NC(=O)[C@H](CCC)NC(=O)[C@H](CCCCN)NC(=O)[C@@H](N)CCC)C(=O)N[C@@H](CCCCN)C(N)=O (HELM PEPTIDE1{[Nva].K.[Nva].K.[Nva].K.[Nva].K.[am]}$$$$V2.0)	6.25 (≈ 5.79 µg/mL)	12	
OC(Cn1cncn1)(Cn1cncn1)c1ccc(F)cc1F [FLUCONAZOLE]	> 100		MIC (Candida albicans [3]): > 100 µM; MIC (Candida albicans [4]): > 100 µM; MIC (Candida albicans [5]): > 100 µM; MIC (Candida albicans [6]): > 100 µM; MIC (Candida albicans [7]): > 100 µM; MIC (Candida albicans [8]): > 100 µM; MIC (Candida albicans [9]): > 100 µM
Clc1ccc(COC(Cn2ccnc2)c2ccc(Cl)cc2Cl)c(Cl)c1 (stereo not drawn) [MICONAZOLE]	12.5 (≈ 5.2 µg/mL)		GI50 at 120 h [10]: 10.3 µM; Activity (Candida albicans [11]): Active; MIC (Candida albicans [3]): 12.5 µM (≈ 5.2 µg/mL); MIC (Candida albicans [4]): 12.5 µM (≈ 5.2 µg/mL); MIC (Candida albicans [5]): 12.5 µM (≈ 5.2 µg/mL); GI50 [12]: 12.8 µM; MIC (Candida albicans [6]): 12.5 µM (≈ 5.2 µg/mL); MIC (Candida albicans [7]): 6.25 µM (≈ 2.6 µg/mL); MIC (Candida albicans [8]): 6.25 µM (≈ 2.6 µg/mL); MIC (Candida albicans [9]): 12.5 µM (≈ 5.2 µg/mL)
CC(O)CO (stereo not drawn) [PROPYLENE GLYCOL]			Activity (NHDF): Non-Toxic
Ac-IKIKIKIK-NH2	12.5	14.3	
H-AKAKAKAK-NH2	> 100	1.9	
H-AKIKIKIK-NH2	6.25	12.4	
H-EKEKEKEK-NH2	> 100	1.9	
H-FKFKFKFK-NH2	6.25	15.2	
H-GKGKGKGK-NH2	> 100	1.6	
H-IAIKIKIK-NH2	12.5	13.7	
